Laboratory results from ChEMBL document CHEMBL5576150, “Synthesis and Biological Evaluation of Pyrazole-Pyrimidones as a New Class of Correctors of the Cystic Fibrosis Transmembrane Conductance Regulator (CFTR)” (J Med Chem, 2024).
Values belong to the molecule of their own block, whether it stands above or below them. Calls of active or inactive are those of the source. No cut-off for these calls is given here.

How the values were obtained:
[1] = tested on: Cystic fibrosis transmembrane conductance regulator (Homo sapiens), P13569 [F508del]; assay: Corrector activity at 3xHA-tagged full-length human CFTR F508del mutant expressed in human CFBE41o- cells assessed as restoration of plasma membrane density of channel at 10 uM incubated for 24 hrs in presence of VX-809/N-(5-(4-fluorobenzyl)thiazol-2-yl)-2,5-dimethylfuran-3-carboxamide by ELISA relative to wild-type CFTR level; assay type: cell membranes; conditions: filed as activator
[2] = tested on: Cystic fibrosis transmembrane conductance regulator (Homo sapiens), P13569 [F508del]; assay: (§1) Corrector activity at 3xHA-tagged full-length human CFTR F508del mutant expressed in human CFBE41o- cells assessed as restoration of plasma membrane density of channel incubated for 24 hrs in presence of VX-809/N-(5-(4-fluorobenzyl)thiazol-2-yl)-2,5-dimethylfuran-3-carboxamide by ELISA; assay type: cell membranes; conditions: filed as activator, dose 10.0 µM
[3] = target: Cystic fibrosis transmembrane conductance regulator (Homo sapiens, UniProt P13569, F508DEL); assay: as §1; assay type: cell membranes
[4] = tested on: Cystic fibrosis transmembrane conductance regulator (Homo sapiens), P13569 [F508del]; assay: Corrector activity at 3xHA-tagged full-length human CFTR F508del mutant expressed in human CFBE41o- cells assessed as functional rescue of channel by measuring anion transport measured after 24 hrs in presence of VX-809/N-(5-(4-fluorobenzyl)thiazol-2-yl)-2,5-dimethylfuran-3-carboxamide by halide-sensitive YFP quenching assay relative to combination of VX-809/N-(5-(4-fluorobenzyl)thiazol-2-yl)-2,5-dimethylfuran-3-carboxamide; assay type: cell-based; conditions: filed as activator
[5] = tested on: Cystic fibrosis transmembrane conductance regulator (Homo sapiens), P13569 [F508del]; assay: Corrector activity at 3xHA-tagged full-length human CFTR F508del mutant expressed in human CFBE41o- cells assessed as fractional plasma membrane density at 10 uM in presence of VX-809/N-(5-(4-fluorobenzyl)thiazol-2-yl)-2,5-dimethylfuran-3-carboxamide relative to forskoli-stimulated wild-type CFTR expressed in human CFBE41o- cells; assay type: cell membranes; conditions: filed as activator
[6] = tested on: Cystic fibrosis transmembrane conductance regulator (Homo sapiens), P13569 [F508del]; assay: Corrector activity at 3xHA-tagged full-length human CFTR F508del mutant expressed in human CFBE41o- cells assessed as […] forskolin/VX-770-induced transepithelial short-circuit current at 10 uM in presence of VX-809/N-(5-(4-fluorobenzyl)thiazol-2-yl)-2,5-dimethylfuran-3-carboxamide by electrophysiological method relative to control; assay type: cell-based; set-up: scale not given: the % may be the effect or the level left; conditions: filed as activator
[7] = tested on: Cystic fibrosis transmembrane conductance regulator (Homo sapiens), P13569 [S13F]; assay: Corrector activity at 3xHA-tagged full-length human CFTR S13F mutant expressed in human CFBE41o- cells assessed as restoration of plasma membrane density of channel in presence of VX-809/N-(5-(4-fluorobenzyl)thiazol-2-yl)-2,5-dimethylfuran-3-carboxamide by ELISA; assay type: cell membranes; conditions: filed as activator
[8] = tested on: Cystic fibrosis transmembrane conductance regulator (Homo sapiens), P13569 [S492F]; assay: Corrector activity at 3xHA-tagged full-length human CFTR S492F mutant expressed in human CFBE41o- cells assessed as restoration of plasma membrane density of channel in presence of VX-809/N-(5-(4-fluorobenzyl)thiazol-2-yl)-2,5-dimethylfuran-3-carboxamide by ELISA; assay type: cell membranes; conditions: filed as activator
[9] = tested on: Cystic fibrosis transmembrane conductance regulator (Homo sapiens), P13569 [M1101K]; assay: Corrector activity at 3xHA-tagged full-length human CFTR M1101K mutant expressed in human CFBE41o- cells assessed as restoration of plasma membrane density of channel in presence of VX-809/N-(5-(4-fluorobenzyl)thiazol-2-yl)-2,5-dimethylfuran-3-carboxamide by ELISA relative to wild-type CFTR level; assay type: cell membranes; conditions: filed as activator
[10] = tested on: Cystic fibrosis transmembrane conductance regulator (Homo sapiens), P13569 [N1303K]; assay: Corrector activity at 3xHA-tagged full-length human CFTR N1303K mutant expressed in human CFBE41o- cells assessed as restoration of plasma membrane density of channel in presence of VX-809/N-(5-(4-fluorobenzyl)thiazol-2-yl)-2,5-dimethylfuran-3-carboxamide by ELISA relative to wild-type CFTR level; assay type: cell membranes; conditions: filed as activator
[11] = tested on: Cystic fibrosis transmembrane conductance regulator (Homo sapiens), P13569 [R560T]; assay: Corrector activity at 3xHA-tagged full-length human CFTR R560T mutant expressed in human CFBE41o- cells assessed as restoration of plasma membrane density of channel in presence of VX-809/N-(5-(4-fluorobenzyl)thiazol-2-yl)-2,5-dimethylfuran-3-carboxamide by ELISA; assay type: cell membranes
[12] = tested on: Cystic fibrosis transmembrane conductance regulator (Homo sapiens), P13569 [S13F]; assay: Corrector activity at 3xHA-tagged full-length human CFTR S13F mutant expressed in human CFBE41o- cells assessed as restoration of plasma membrane density of channel in presence of N-(5-(4-fluorobenzyl)thiazol-2-yl)-2,5-dimethylfuran-3-carboxamide incubated for 24 hrs by ELISA; assay type: cell membranes; conditions: filed as activator
[13] = tested on: Cystic fibrosis transmembrane conductance regulator (Homo sapiens), P13569 [S13F]; assay: Corrector activity at 3xHA-tagged full-length human CFTR S13F mutant expressed in human CFBE41o- cells assessed as restoration of plasma membrane density of channel in presence of VX-809 incubated for 24 hrs by ELISA; assay type: cell membranes; conditions: filed as activator
[14] = tested on: Cystic fibrosis transmembrane conductance regulator (Homo sapiens), P13569 [S13F]; assay: Corrector activity at 3xHA-tagged full-length human CFTR S13F mutant expressed in human CFBE41o- cells assessed as restoration of plasma membrane density of channel in presence of VX-661 incubated for 24 hrs by ELISA; assay type: cell membranes; conditions: filed as activator
[15] = tested on: Cystic fibrosis transmembrane conductance regulator (Homo sapiens), P13569 [S492F]; assay: Corrector activity at 3xHA-tagged full-length human CFTR S492F mutant expressed in human CFBE41o- cells assessed as restoration of plasma membrane density of channel in presence of N-(5-(4-fluorobenzyl)thiazol-2-yl)-2,5-dimethylfuran-3-carboxamide incubated for 24 hrs by ELISA; assay type: cell membranes; conditions: filed as activator
[16] = tested on: Cystic fibrosis transmembrane conductance regulator (Homo sapiens), P13569 [S492F]; assay: Corrector activity at 3xHA-tagged full-length human CFTR S492F mutant expressed in human CFBE41o- cells assessed as restoration of plasma membrane density of channel in presence of VX-809 incubated for 24 hrs by ELISA; assay type: cell membranes; conditions: filed as activator
[17] = tested on: Cystic fibrosis transmembrane conductance regulator (Homo sapiens), P13569 [S492F]; assay: Corrector activity at 3xHA-tagged full-length human CFTR S492F mutant expressed in human CFBE41o- cells assessed as restoration of plasma membrane density of channel in presence of VX-661 incubated for 24 hrs by ELISA; assay type: cell membranes; conditions: filed as activator
[18] = tested on: Cystic fibrosis transmembrane conductance regulator (Homo sapiens), P13569 [F508del]; assay: Corrector activity at 3xHA-tagged full-length human CFTR F508del mutant expressed in human CFBE41o- cells assessed as restoration of plasma membrane density of channel in presence of N-(5-(4-fluorobenzyl)thiazol-2-yl)-2,5-dimethylfuran-3-carboxamide incubated for 24 hrs by ELISA; assay type: cell membranes; conditions: filed as activator
[19] = tested on: Cystic fibrosis transmembrane conductance regulator (Homo sapiens), P13569 [F508del]; assay: Corrector activity at 3xHA-tagged full-length human CFTR F508del mutant expressed in human CFBE41o- cells assessed as restoration of plasma membrane density of channel incubated for 24 hrs in presence of VX-809 by ELISA; assay type: cell membranes; conditions: filed as activator
[20] = tested on: Cystic fibrosis transmembrane conductance regulator (Homo sapiens), P13569 [F508del]; assay: Corrector activity at 3xHA-tagged full-length human CFTR F508del mutant expressed in human CFBE41o- cells assessed as restoration of plasma membrane density of channel incubated for 24 hrs in presence of VX-661 by ELISA; assay type: cell membranes; conditions: filed as activator
[21] = tested on: Cystic fibrosis transmembrane conductance regulator (Homo sapiens), P13569 [S13F]; assay: Corrector activity at 3xHA-tagged full-length human CFTR S13F mutant expressed in human CFBE41o- cells assessed as restoration of plasma membrane density of channel incubated for 24 hrs in presence of VX-445 by ELISA; assay type: cell membranes
[22] = tested on: Cystic fibrosis transmembrane conductance regulator (Homo sapiens), P13569 [S492F]; assay: Corrector activity at 3xHA-tagged full-length human CFTR S492F mutant expressed in human CFBE41o- cells assessed as restoration of plasma membrane density of channel incubated for 24 hrs in presence of VX-445 by ELISA; assay type: cell membranes
[23] = tested on: Cystic fibrosis transmembrane conductance regulator (Homo sapiens), P13569 [F508del]; assay: Corrector activity at 3xHA-tagged full-length human CFTR F508del mutant expressed in human CFBE41o- cells assessed as restoration of plasma membrane density of channel incubated for 24 hrs in presence of VX-445 by ELISA; assay type: cell membranes
[24] = tested on: Cystic fibrosis transmembrane conductance regulator (Homo sapiens), P13569 [S13F]; assay: Corrector activity at 3xHA-tagged full-length human CFTR S13F mutant expressed in human CFBE41o- cells assessed as restoration of plasma membrane density of channel at 10 uM incubated for 24 hrs in presence of VX-445 by ELISA; assay type: cell membranes
[25] = tested on: Cystic fibrosis transmembrane conductance regulator (Homo sapiens), P13569 [F508del]; assay: (§2) Corrector activity at 3xHA-tagged full-length human CFTR F508del mutant expressed in human CFBE41o- cells assessed as restoration of plasma membrane density of channel at 10 uM incubated for 24 hrs in presence of VX-809/1-(4-chlorophenyl)-N-(1-(4-methyl-6-oxo-1,6-dihydropyrimidin-2-yl)-3-(thiophen-2-yl)-1H-pyrazol-5-yl)cyclopentane-1-carboxamide by immunoblot analysis relative to wild-type CFTR level; assay type: cell membranes; conditions: filed as activator
[26] = tested on: Cystic fibrosis transmembrane conductance regulator (Homo sapiens), P13569 [F508del]; assay: as §2, with “densitometry” for “immunoblot analysis”; assay type: cell membranes; conditions: filed as activator
[27] = tested on: Cystic fibrosis transmembrane conductance regulator (Homo sapiens), P13569 [F508del]; assay: Corrector activity at 3xHA-tagged full-length human CFTR F508del mutant expressed in human CFBE41o- cells assessed as restoration of plasma membrane density of channel at 10 uM incubated for 24 hrs in presence of VX-809/1-(4-chlorophenyl)-N-(1-(4-methyl-6-oxo-1,6-dihydropyrimidin-2-yl)-3-(thiophen-2-yl)-1H-pyrazol-5-yl)cyclopentane-1-carboxamide by ELISA relative to wild-type CFTR level; assay type: cell membranes; conditions: filed as activator
[28] = tested on: Cystic fibrosis transmembrane conductance regulator (Homo sapiens), P13569 [F508del]; assay: Corrector activity at 3xHA-tagged full-length human CFTR F508del mutant expressed in human CFBE41o- cells assessed as restoration of channel function in presence of VX-809/1-(4-chlorophenyl)-N-(1-(4-methyl-6-oxo-1,6-dihydropyrimidin-2-yl)-3-(thiophen-2-yl)-1H-pyrazol-5-yl)cyclopentane-1-carboxamide relative to wild-type CFTR activity; assay type: cell-based; conditions: filed as activator

Cystic fibrosis transmembrane conductance regulator (Homo sapiens), P13569 [S13F], sequence (P13569 whole entry S13F): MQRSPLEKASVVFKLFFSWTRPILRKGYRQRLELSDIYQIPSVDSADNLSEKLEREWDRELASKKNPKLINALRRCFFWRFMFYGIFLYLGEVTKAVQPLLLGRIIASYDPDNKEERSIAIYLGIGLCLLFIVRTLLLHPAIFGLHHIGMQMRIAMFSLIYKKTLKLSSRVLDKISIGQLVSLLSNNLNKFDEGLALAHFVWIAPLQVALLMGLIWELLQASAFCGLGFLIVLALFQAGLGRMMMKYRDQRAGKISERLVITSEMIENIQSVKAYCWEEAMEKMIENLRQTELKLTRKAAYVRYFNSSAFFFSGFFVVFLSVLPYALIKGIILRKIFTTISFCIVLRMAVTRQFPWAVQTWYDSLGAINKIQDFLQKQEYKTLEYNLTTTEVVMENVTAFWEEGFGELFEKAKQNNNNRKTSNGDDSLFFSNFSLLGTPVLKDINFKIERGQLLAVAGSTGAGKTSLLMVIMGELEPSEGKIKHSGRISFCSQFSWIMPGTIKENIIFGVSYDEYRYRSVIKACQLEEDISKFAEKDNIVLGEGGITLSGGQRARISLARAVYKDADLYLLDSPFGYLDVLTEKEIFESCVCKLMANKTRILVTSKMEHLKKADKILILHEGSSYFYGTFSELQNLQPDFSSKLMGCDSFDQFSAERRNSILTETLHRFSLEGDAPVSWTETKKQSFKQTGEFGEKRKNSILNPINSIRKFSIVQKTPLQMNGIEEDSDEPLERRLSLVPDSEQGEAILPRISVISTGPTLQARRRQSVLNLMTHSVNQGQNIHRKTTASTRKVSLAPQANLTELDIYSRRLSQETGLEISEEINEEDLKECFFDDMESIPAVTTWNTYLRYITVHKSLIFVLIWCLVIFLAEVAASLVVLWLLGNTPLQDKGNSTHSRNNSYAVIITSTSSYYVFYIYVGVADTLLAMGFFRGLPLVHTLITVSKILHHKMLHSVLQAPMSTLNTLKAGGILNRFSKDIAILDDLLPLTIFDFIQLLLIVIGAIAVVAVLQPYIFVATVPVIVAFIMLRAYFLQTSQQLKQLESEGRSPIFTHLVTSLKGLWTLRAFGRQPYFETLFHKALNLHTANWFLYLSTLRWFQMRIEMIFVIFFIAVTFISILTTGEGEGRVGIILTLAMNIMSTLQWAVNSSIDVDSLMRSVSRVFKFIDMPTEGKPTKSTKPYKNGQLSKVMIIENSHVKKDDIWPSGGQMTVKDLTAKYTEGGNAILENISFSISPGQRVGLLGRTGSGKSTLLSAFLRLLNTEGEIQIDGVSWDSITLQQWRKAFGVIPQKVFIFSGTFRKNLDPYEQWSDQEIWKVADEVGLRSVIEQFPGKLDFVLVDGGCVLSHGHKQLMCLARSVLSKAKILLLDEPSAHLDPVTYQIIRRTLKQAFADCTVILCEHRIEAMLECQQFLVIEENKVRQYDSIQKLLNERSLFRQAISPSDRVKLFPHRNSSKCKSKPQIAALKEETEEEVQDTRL
Cystic fibrosis transmembrane conductance regulator (Homo sapiens), P13569 [S492F], sequence (P13569 whole entry S492F): as the sequence (P13569 whole entry S13F) above, with F13S, S492F counted along it
Cystic fibrosis transmembrane conductance regulator (Homo sapiens), P13569 [F508del], sequence (P13569 as listed by the source): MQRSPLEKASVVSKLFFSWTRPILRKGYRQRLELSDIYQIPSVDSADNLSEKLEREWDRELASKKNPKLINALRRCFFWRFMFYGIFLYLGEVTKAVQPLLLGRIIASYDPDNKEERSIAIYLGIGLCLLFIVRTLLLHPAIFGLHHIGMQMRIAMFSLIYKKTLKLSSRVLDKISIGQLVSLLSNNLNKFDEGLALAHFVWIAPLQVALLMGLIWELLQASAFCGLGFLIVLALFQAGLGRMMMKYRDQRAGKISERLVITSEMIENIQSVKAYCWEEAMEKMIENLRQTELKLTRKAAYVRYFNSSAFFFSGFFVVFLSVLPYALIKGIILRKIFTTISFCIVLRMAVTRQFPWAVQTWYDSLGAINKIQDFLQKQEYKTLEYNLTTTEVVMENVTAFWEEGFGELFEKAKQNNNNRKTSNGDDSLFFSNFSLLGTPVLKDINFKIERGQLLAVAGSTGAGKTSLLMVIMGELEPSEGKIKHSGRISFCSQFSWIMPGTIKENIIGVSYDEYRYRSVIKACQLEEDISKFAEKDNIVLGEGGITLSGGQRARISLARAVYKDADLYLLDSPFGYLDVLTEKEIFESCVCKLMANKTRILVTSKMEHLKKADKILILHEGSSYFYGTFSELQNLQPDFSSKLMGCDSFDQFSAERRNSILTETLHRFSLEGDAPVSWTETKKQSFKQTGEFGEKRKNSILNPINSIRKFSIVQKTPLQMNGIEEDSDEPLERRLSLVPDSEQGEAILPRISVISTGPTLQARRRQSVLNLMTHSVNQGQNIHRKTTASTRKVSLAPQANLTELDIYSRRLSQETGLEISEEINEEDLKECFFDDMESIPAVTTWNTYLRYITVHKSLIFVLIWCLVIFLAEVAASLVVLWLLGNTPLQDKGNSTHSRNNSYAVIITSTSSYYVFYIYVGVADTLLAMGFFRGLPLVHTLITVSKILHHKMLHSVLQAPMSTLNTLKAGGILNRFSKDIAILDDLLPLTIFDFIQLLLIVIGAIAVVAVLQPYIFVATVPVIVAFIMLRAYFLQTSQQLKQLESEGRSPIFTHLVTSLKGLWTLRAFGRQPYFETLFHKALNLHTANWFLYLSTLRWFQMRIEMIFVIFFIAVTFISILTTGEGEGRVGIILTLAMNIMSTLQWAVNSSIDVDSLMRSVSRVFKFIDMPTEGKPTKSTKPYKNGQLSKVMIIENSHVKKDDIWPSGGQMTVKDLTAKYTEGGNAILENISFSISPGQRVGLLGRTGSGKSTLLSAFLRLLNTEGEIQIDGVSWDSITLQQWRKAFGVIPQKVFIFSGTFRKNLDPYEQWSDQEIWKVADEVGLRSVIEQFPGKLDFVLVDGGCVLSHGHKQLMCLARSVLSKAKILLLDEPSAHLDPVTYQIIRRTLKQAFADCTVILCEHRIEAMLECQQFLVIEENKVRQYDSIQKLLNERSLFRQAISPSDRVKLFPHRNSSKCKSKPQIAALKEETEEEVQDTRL
Cystic fibrosis transmembrane conductance regulator (Homo sapiens), P13569 [M1101K], sequence (P13569 whole entry M1101K): as the sequence (P13569 whole entry S13F) above, with F13S, M1101K counted along it
Cystic fibrosis transmembrane conductance regulator (Homo sapiens), P13569 [R560T], sequence (P13569 whole entry R560T): as the sequence (P13569 whole entry S13F) above, with F13S, R560T counted along it
Cystic fibrosis transmembrane conductance regulator (Homo sapiens), P13569 [N1303K], sequence (P13569 whole entry N1303K): as the sequence (P13569 whole entry S13F) above, with F13S, N1303K counted along it
Cystic fibrosis transmembrane conductance regulator, sequence (P13569 as listed by the source): as the sequence (P13569 as listed by the source) above

Activity [1]: 95% | Activity [2]: Dose-Dependent Effect | EC50 [3]: 1.79 µM | Activity [4]: 250% | Activity [5]: 68% | Activity [6]: -25% | Activity [7]: Active | Activity [8]: Active | Activity [9]: 15% | Activity [10]: 15% | Activity [11]: inactive | Activity [12]: Active | Activity [13]: Active | Activity [14]: Active | Activity [15]: Active | Activity [16]: Active | Activity [17]: Active | Activity [18]: Active | Activity [19]: Active | Activity [20]: Active | Activity [21]: inactive | Activity [22]: inactive | Activity [23]: inactive | Activity [24]: inactive
SMILES: Cc1nc(-n2nc(-c3cccs3)cc2NC(=O)C2(c3ccc(Cl)cc3)CCCC2)[nH]c(=O)c1C

Activity [1]: 102%
SMILES: Cc1nc(-n2nc(-c3ccccc3)cc2NC(=O)C2(c3ccc(Cl)cc3)CCCC2)[nH]c(=O)c1C

Activity [25]: 100% | Activity [26]: 100% | Activity [27]: 100% | Activity [28]: 50%
SMILES: Cc1cc(C(=O)Nc2ncc(Cc3ccc(F)cc3)s2)c(C)o1
